Calls of active or inactive are those of the source. No cut-off for these calls is given here.

For assay [1], the target named is Fibroblast growth factor receptor 1 (Homo sapiens) (UniProt P11362). Briefly: Inhibition of FGFR1 (unknown origin) at 10 uM by biochemical hotspot kinase assay relative to control.
The target of assay [2] is Tyrosine-protein kinase Lyn (Homo sapiens) (UniProt P07948). The assay can be described thus: Inhibition of LYN (unknown origin) at 10 uM by biochemical hotspot kinase assay.
Assay [3] has as its target Serine/threonine-protein kinase PLK2 (Homo sapiens) (UniProt Q9NYY3). The assay can be described thus: Inhibition of PLK2 (unknown origin) at 10 uM by biochemical hotspot kinase assay relative to control.
In assay [4] the target is Serine/threonine-protein kinase B-raf (Homo sapiens) (UniProt P15056). The assay can be described thus: Inhibition of B-RAF (unknown origin) at 10 uM by biochemical hotspot kinase assay relative to control.
Sequence of Serine/threonine-protein kinase B-raf (Homo sapiens) (P15056 whole entry): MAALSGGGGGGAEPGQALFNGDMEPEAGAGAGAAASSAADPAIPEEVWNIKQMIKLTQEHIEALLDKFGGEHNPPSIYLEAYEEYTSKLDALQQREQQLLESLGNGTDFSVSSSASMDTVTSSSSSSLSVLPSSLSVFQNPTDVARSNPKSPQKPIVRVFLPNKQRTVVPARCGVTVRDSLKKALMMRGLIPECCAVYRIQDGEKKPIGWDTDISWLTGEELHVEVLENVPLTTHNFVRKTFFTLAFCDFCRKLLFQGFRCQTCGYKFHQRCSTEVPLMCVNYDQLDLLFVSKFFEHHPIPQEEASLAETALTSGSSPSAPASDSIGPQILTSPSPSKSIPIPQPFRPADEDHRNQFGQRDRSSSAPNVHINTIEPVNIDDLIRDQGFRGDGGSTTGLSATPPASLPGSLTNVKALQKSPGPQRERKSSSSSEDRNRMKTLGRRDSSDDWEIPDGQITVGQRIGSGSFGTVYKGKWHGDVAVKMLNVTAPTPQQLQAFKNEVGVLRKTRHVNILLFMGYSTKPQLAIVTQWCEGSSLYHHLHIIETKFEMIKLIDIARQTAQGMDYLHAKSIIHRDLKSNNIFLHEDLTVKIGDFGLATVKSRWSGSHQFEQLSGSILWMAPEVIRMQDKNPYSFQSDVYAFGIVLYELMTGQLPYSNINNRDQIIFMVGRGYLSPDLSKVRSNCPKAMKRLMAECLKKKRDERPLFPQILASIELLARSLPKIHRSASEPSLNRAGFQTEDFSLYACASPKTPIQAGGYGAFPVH
In assay [5] the target is Mitogen-activated protein kinase 14 (Homo sapiens) (UniProt Q16539). The assay can be described thus: Inhibition of p38a (unknown origin) at 10 uM by biochemical hotspot kinase assay.
Sequence of Mitogen-activated protein kinase 14 (Homo sapiens) (Q16539 whole entry): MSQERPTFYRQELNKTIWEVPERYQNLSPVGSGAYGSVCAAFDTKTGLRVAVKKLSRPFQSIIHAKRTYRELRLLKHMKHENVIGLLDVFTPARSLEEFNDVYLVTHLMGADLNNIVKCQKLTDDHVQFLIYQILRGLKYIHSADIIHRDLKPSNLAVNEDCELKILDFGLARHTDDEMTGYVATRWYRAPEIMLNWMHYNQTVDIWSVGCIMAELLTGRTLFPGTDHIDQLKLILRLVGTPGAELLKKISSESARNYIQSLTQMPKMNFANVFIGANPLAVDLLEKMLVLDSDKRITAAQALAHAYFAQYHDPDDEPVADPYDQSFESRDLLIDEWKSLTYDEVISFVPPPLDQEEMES
For assay [6], the target named is Receptor-type tyrosine-protein kinase FLT3 (Homo sapiens) (UniProt P36888). The assay can be described thus: Inhibition of FLT3 (unknown origin) at 10 uM by biochemical hotspot kinase assay relative to control.
The target of assay [7] is Ephrin type-B receptor 4 (Homo sapiens) (UniProt P54760). Briefly: Inhibition of EPHB4 (unknown origin) at 10 uM by biochemical hotspot kinase assay.
Sequence of Ephrin type-B receptor 4 (Homo sapiens) (P54760 whole entry): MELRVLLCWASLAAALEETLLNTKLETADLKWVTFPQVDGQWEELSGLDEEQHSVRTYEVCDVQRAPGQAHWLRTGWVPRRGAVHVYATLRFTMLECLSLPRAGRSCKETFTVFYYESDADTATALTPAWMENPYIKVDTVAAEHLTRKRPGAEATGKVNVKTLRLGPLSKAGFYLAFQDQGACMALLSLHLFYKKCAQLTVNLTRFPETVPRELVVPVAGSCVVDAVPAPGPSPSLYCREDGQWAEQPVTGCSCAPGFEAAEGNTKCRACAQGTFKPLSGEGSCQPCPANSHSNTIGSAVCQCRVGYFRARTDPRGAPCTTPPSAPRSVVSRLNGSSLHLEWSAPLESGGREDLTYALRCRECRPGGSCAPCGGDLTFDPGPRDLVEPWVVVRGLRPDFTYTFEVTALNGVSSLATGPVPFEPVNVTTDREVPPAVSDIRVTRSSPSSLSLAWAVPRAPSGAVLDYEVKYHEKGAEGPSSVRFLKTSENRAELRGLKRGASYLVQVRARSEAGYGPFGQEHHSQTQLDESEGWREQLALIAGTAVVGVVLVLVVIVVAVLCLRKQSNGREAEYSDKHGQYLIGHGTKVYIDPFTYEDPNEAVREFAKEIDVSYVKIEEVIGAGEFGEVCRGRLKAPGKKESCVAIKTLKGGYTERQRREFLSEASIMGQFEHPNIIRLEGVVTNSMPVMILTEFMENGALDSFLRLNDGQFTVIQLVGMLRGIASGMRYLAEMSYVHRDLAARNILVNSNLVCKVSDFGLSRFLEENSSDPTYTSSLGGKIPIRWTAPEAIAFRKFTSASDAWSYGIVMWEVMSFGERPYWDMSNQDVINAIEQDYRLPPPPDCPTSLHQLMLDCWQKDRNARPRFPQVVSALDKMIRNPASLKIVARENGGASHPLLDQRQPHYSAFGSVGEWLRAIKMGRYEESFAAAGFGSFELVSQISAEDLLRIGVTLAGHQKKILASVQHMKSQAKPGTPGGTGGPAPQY
Assay [8] deals with Mitogen-activated protein kinase 15 (Homo sapiens) (UniProt Q8TD08). The assay can be described thus: Inhibition of ERK7 (unknown origin) at 10 uM by biochemical hotspot kinase assay.
Sequence of Mitogen-activated protein kinase 15 (Homo sapiens) (Q8TD08 whole entry): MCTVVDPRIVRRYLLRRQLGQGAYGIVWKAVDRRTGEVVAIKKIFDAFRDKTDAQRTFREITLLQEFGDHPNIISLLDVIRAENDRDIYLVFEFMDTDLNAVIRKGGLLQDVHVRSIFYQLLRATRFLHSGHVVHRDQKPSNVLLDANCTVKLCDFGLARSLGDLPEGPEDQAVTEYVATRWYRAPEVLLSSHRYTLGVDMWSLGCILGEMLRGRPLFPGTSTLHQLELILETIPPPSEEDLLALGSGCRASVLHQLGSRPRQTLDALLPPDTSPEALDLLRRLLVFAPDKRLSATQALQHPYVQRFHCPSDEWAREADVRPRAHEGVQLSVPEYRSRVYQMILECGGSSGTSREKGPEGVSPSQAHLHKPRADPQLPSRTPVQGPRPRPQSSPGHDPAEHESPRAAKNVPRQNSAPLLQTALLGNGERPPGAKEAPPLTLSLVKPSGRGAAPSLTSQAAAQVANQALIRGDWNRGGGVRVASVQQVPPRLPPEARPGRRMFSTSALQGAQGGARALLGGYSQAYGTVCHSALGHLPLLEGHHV
The target in assay [9] is Platelet-derived growth factor receptor alpha (Homo sapiens) (UniProt P16234). Briefly: Inhibition of PDGFRa (unknown origin) at 10 uM by biochemical hotspot kinase assay.
Sequence of Platelet-derived growth factor receptor alpha (Homo sapiens) (P16234 whole entry): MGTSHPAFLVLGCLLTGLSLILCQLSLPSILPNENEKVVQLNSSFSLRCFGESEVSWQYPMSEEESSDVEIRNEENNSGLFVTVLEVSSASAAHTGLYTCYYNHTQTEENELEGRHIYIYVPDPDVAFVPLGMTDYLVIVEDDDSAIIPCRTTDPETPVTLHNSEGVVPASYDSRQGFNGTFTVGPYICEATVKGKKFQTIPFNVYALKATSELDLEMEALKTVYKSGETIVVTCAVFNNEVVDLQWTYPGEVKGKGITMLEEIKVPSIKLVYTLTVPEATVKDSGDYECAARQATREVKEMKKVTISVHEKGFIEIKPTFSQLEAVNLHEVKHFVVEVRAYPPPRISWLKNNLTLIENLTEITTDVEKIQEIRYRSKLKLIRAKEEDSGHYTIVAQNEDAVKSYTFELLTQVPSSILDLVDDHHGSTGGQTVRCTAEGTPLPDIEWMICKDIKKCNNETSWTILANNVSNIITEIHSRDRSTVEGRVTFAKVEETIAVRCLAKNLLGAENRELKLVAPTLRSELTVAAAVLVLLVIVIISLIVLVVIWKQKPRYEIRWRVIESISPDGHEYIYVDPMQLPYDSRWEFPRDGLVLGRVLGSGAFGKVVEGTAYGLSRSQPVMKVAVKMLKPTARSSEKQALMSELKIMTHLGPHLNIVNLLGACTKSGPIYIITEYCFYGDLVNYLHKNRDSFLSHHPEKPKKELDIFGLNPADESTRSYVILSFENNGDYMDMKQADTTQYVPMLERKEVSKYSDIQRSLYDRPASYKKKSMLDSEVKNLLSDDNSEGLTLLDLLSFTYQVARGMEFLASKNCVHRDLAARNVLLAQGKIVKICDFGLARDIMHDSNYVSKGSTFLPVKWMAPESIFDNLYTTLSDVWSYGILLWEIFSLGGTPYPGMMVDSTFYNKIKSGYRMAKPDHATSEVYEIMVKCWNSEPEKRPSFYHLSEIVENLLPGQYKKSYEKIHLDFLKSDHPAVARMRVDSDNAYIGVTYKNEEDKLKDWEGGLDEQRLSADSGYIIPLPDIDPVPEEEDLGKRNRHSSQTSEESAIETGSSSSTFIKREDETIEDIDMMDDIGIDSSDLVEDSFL
The target of assay [10] is TRAF2 and NCK-interacting protein kinase (Homo sapiens) (UniProt Q9UKE5). The assay can be described thus: Inhibition of TNIK (unknown origin) at 10 uM by biochemical hotspot kinase assay relative to control.
For assay [11], the system named is HT-29. The assay can be described thus: Antiproliferative activity against human HT-29 cells assessed as cell growth inhibition by SRB assay. It is filed as functional. For orientation: Sulforhodamine B stains cellular protein and so reports cell mass.
Assay [12] addresses Receptor-interacting serine/threonine-protein kinase 2 (Homo sapiens) (UniProt O43353). The assay can be described thus: Inhibition of RIPK2 (unknown origin) at 10 uM by biochemical hotspot kinase assay relative to control.
In assay [13] the target is Misshapen-like kinase 1 (Homo sapiens) (UniProt Q8N4C8). The assay can be described thus: Inhibition of MINK (unknown origin) at 10 uM by biochemical hotspot kinase assay relative to control.
For assay [14], the target named is Cyclin-dependent kinase 2/cyclin A (Homo sapiens) (UniProt P24941+P20248+P78396). Briefly: Inhibition of CDK2/cyclin A (unknown origin) at 10 uM by biochemical hotspot kinase assay. It is filed as protein-complex assay.
Assay [15] deals with Vascular endothelial growth factor receptor 3 (Homo sapiens) (UniProt P35916). Briefly: Inhibition of VEGFR3 (unknown origin) at 10 uM by biochemical hotspot kinase assay relative to control.
Assay [16] addresses Tyrosine-protein kinase ABL1 (Homo sapiens) (UniProt P00519). Briefly: Inhibition of ABL1 (unknown origin) at 10 uM by biochemical hotspot kinase assay.
For assay [17], the target named is Serine/threonine-protein kinase Chk2 (Homo sapiens) (UniProt O96017). Briefly: Inhibition of CHK2 (unknown origin) at 10 uM by biochemical hotspot kinase assay relative to control.
The subject of assay [18] is MCF7. Briefly: Antiproliferative activity against estrogen receptor positive human MCF7 cells assessed as inhibition of cell growth at 10 uM by SRB assay. It is filed as functional, cell-based.
The subject of assay [19] is A549. The assay can be described thus: Antiproliferative activity against human A549 cells assessed as cell growth inhibition at 10 uM by SRB assay relative to control. It is filed as functional.
The subject of assay [20] is NCI-H226. Briefly: Antiproliferative activity against human NCI-H226 cells assessed as cell growth inhibition at 10 uM by SRB assay relative to control. The class given is functional. The settings on record: pooled result: one value given for 4 cell lines, strains, targets or settings.

Sequence of Serine/threonine-protein kinase PLK2 (Homo sapiens) (Q9NYY3 whole entry, looked up): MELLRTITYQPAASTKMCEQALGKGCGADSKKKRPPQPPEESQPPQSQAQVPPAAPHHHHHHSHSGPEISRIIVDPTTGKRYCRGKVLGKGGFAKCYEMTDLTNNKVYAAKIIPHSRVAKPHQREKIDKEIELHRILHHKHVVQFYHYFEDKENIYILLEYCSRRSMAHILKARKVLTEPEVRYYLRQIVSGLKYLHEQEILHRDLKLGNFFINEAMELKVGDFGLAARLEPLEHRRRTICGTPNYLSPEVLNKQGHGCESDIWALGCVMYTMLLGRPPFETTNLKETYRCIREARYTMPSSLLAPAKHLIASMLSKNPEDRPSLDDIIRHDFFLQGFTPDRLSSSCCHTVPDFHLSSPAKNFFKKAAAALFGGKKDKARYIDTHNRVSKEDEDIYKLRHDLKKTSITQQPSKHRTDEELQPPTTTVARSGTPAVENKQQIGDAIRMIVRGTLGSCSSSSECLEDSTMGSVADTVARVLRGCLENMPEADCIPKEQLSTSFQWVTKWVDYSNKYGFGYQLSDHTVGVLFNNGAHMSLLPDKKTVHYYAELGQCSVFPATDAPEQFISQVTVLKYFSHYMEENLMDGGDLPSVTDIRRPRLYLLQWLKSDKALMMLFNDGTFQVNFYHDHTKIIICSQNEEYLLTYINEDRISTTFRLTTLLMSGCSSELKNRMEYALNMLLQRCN
Sequence of Receptor-interacting serine/threonine-protein kinase 2 (Homo sapiens) (O43353 whole entry): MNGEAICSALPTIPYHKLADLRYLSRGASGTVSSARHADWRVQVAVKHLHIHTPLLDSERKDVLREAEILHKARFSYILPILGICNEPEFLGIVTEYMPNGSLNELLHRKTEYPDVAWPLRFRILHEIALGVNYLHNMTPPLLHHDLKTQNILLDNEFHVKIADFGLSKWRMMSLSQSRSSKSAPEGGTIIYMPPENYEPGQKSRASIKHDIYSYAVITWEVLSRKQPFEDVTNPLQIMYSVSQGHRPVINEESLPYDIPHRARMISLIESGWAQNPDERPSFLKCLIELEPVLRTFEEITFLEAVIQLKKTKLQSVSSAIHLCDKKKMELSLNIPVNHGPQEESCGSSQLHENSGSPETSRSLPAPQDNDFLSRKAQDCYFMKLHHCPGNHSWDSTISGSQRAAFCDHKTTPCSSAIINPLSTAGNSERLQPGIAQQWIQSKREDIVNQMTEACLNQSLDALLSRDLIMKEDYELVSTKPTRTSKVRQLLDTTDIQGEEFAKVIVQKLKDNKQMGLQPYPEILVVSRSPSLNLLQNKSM

The term inhibition denotes the percentage by which the read-out fell short of the control. The term GI50 denotes the concentration that inhibits growth by half. Regarding `COc1cc2oc(-c3cccc(C(=O)Nc4ccc(C)cc4)c3)cc(=O)c2c(OC)c1OC`, the inhibition in [1] was determined as 16.5%; in [3], 10.5%; in assay [4], 34.3%; in [6], 10.7%; in [10], 46.1%; in assay [12] it was 36.1%. Moreover, the inhibition was found to be 41% in assay [13], 8.65% in assay [15] and 6.31% in assay [17]. Moreover, the inhibition result in [2], in assay [5], in [7], in assay [8], in assay [9] and in [14] was “inactive” in each case. Besides, the inhibition result in assay [16] is “inactive”. The GI50 in assay [11] amounted to 2550 nM.

Regarding `COc1cc2oc(-c3cccc(C(=O)Nc4ccc(Cl)cc4)c3)cc(=O)c2c(OC)c1OC`, the inhibition result in assay [18] is “Active”. The values for the inhibition at 10 µM in assay [19] and in assay [20] were 74.8% and 51.8%, respectively.

For the origin of these results see ChEMBL document CHEMBL5260845, “Flavone-based arylamides as potential anticancers: Design, synthesis and in vitro cell-based/cell-free evaluations” (2020).
